From patent US20240309003A1, “HETEROCYCLIC COMPOUNDS AS TRIGGERING RECEPTOR EXPRESSED ON MYELOID CELLS 2 AGONISTS AND METHODS OF USE” (Vigil Neuroscience, Inc., priority 2021, published 2024)

target: T1, human TREM2 (Homo sapiens, UniProt Q9NZC2); assay: TREM2 agonist potency by cellular phosphorylation of Syk (AlphaLisa) in HEK293T-hTREM2 cells; type: cell-based; settings: HEK293 cells expressing human TREM2 and DAP12, Table D-2
T1 construct: expressed in transfected cells; host or cells: HEK293T
Outline: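 Agonist EC50 from a variable-slope four-parameter fit of % activation, based on AlphaLisa phospho-Syk levels in lysates. Cells: HEK293T-hTREM2 (with DAP12), treated 45 min at room temperature with compound in assay buffer.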

T1 sequence (Q9NZC2 19-230): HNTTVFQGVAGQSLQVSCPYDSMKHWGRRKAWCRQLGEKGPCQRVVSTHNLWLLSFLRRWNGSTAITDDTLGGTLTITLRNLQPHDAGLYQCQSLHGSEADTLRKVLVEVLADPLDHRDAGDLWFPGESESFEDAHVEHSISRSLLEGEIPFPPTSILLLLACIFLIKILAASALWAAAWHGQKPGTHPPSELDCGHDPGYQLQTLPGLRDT
T1 sequence (O43914 22-113 partner): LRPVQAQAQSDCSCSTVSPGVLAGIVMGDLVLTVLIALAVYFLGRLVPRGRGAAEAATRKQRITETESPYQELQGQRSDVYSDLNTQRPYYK

Structure (SMILES)	EC50
Cc1cc2c(-c3ccc(F)cc3F)nc(N3C[C@@H](C)O[C@@H](c4cn(C)cn4)C3)nc2nc1C [Example I-1260, (2R,6R)-4-[4-(2,4-difluorophenyl)-6,7-dimethyl-pyrido[2,3-d]pyrimidin-2-yl]-2-methyl-6-(1-methylimidazol-4-yl)morpholine; formic acid]	0.5 to 3 µM
Cc1nc2nc(N3C[C@@H](C)O[C@@H](c4ccn(C5CC5)n4)C3)nc(-c3ccc(F)cc3F)c2nc1C [Example I-1265, (2R,6R)-2-(1-cyclopropylpyrazol-3-yl)-4-[4-(2,4-difluorophenyl)-6,7-dimethyl-pteridin-2-yl]-6-methyl-morpholine]	0.05 to 0.5 µM
Cc1cc([C@@H]2CN(c3nc(-c4ccc(Cl)cc4F)c4nc(C)c(C)nc4n3)CCO2)no1 [Example I-1270, 4-[4-(4-chloro-2-fluoro-phenyl)-6,7-dimethyl-pteridin-2-yl]-2-(5-methylisoxazol-3-yl)morpholine]	0.05 to 0.5 µM
Cc1nc2nc([C@H]3CCO[C@@H](c4cnn(C5CC5)c4)C3)nc(-c3ccc(OC(F)(F)F)cc3F)c2nc1C [Example I-1313, 2-((2R,4S)-2-(1-cyclopropyl-1H-pyrazol-4-yl)tetrahydro-2H-pyran-4-yl)-4-(2-fluoro-4-(trifluoromethoxy)phenyl)-6,7-dimethylpteridine]	0.05 to 0.5 µM
Cc1nc2nc(N3C[C@@H](CO)O[C@@H](c4cnn(C5CC5)c4)C3)nc(-c3ccc(F)cc3F)c2nc1C [Example I-1333, [(2S,6S)-6-(1-cyclopropylpyrazol-4-yl)-4-[4-(2,4-difluorophenyl)-6,7-dimethyl-pteridin-2-yl]morpholin-2-yl]methanol]	0.05 to 0.5 µM
Cc1nc2nc(N3C[C@H](CO)O[C@H](c4cnn(C5CC5)c4)C3)nc(-c3ccc(F)cc3F)c2nc1C [Example I-1334, [(2R,6R)-6-(1-cyclopropylpyrazol-4-yl)-4-[4-(2,4-difluorophenyl)-6,7-dimethyl-pteridin-2-yl]morpholin-2-yl]methanol]	3 to 100 µM
Fc1cc(Cl)ccc1-c1nc([C@@H]2CCO[C@H](c3cnn(C4CC4)c3)C2)nc2nc(CC(F)(F)F)cnc12 [Example I-1338, 4-(4-chloro-2-fluoro-phenyl)-2-[(2S,4R)-2-(1-cyclopropylpyrazol-4-yl)tetrahydropyran-4-yl]-7-(2,2,2-trifluoroethyl)pteridine]	0.05 to 0.5 µM
COCn1cc([C@H]2CN(c3nc(-c4ccc(F)cc4F)c4nc(C)c(C)nc4n3)C[C@@H](C)O2)cn1 [Example I-1441, (2S,6R)-4-[4-(2,4-difluorophenyl)-6,7-dimethyl-pteridin-2-yl]-2-[1-(methoxymethyl)pyrazol-4-yl]-6-methyl-morpholine]	< 0.05 µM
COCn1cc([C@H]2CN(c3nc(-c4ccc(Cl)cc4F)c4nc(C)c(C)nc4n3)C[C@@H](C)O2)cn1 [Example I-1446, (2S,6R)-4-[4-(4-chloro-2-fluoro-phenyl)-6,7-dimethyl-pteridin-2-yl]-2-[1-(methoxymethyl)pyrazol-4-yl]-6-methyl-morpholine]	< 0.05 µM
Cc1nc2cc([C@H]3CCO[C@@H](c4cnn(C5CC5)c4)C3)nc(-c3ccc(F)cc3F)c2nc1CC#N [Example I-1451, 2-(7-((2R,4S)-2-(1-cyclopropyl-1H-pyrazol-4-yl)tetrahydro-2H-pyran-4-yl)-5-(2,4-difluorophenyl)-2-methylpyrido[3,4-b]pyrazin-3-yl)acetonitrile]	0.5 to 3 µM
Cc1nc2cc([C@H]3CCO[C@@H](c4cnn(C5CC5)c4)C3)nc(-c3ccc(F)cc3F)c2nc1CF [Example I-1456, 7-((2R,4S)-2-(1-cyclopropyl-1H-pyrazol-4-yl)tetrahydro-2H-pyran-4-yl)-5-(2,4-difluorophenyl)-3-(fluoromethyl)-2-methylpyrido[3,4-b]pyrazine]	< 0.05 µM
Cc1nc2nc(-c3cc(-c4cnn(C5CC5)c4)c(=O)n(C)c3)nc(-c3ccc(F)cc3F)c2nc1C [Example I-1461, 3-(1-cyclopropyl-1H-pyrazol-4-yl)-5-(4-(2,4-difluorophenyl)-6,7-dimethylpteridin-2-yl)-1-methylpyridin-2(1H)-one]	0.05 to 0.5 µM
Cc1nc2nc(N3C[C@@H](C)O[C@@H](c4cnn(C5CC5)c4CO)C3)nc(-c3ccc(F)cc3F)c2nc1C [Example I-1462, [2-cyclopropyl-4-[(2S,6R)-4-[4-(2,4-difluorophenyl)-6,7-dimethyl-pteridin-2-yl]-6-methyl-morpholin-2-yl]pyrazol-3-yl]methanol]	0.05 to 0.5 µM
Cc1nc2nc(N3C[C@@H](C)O[C@@H](c4cnn(C(F)F)c4)C3)nc(-c3ccc(F)cc3F)c2nc1C [Example I-1472, (2S,6R)-2-[1-(difluoromethyl)pyrazol-4-yl]-4-[4-(2,4-difluorophenyl)-6,7-dimethyl-pteridin-2-yl]-6-methyl-morpholine]	< 0.05 µM
Cc1nc2c(-c3ccc(Cl)cc3F)nc([C@H]3CCO[C@@H](c4cnn(C5CC5)c4)C3)nc2nc1CC(F)F [Example I-1477, 4-(4-chloro-2-fluoro-phenyl)-2-[(2R,4S)-2-(1-cyclopropylpyrazol-4-yl)tetrahydropyran-4-yl]-7-(2,2-difluoroethyl)-6-methyl-pteridine]	0.05 to 0.5 µM
Cc1nc2nc(N3C[C@@H](C)O[C@@H](c4cnn(C5CC5)c4)C3)nc(-c3ccc4c(c3F)CCC4(F)F)c2nc1C [Example I-1485, (2S,6R)-2-(1-cyclopropylpyrazol-4-yl)-4-[6,7-dimethyl-4-(1,1,4-trifluoroindan-5-yl)pteridin-2-yl]-6-methyl-morpholine]	< 0.05 µM
Cc1nc2cc([C@H]3CCO[C@@H](c4cnn(C5CC5)c4)C3)nc(-c3ccc(F)cc3F)c2nc1COC(F)F [Example I-1490, 7-((2R,4S)-2-(1-cyclopropyl-1H-pyrazol-4-yl)tetrahydro-2H-pyran-4-yl)-3-((difluoromethoxy)methyl)-5-(2,4-difluorophenyl)-2-methylpyrido[3,4-b]pyrazine]	3 to 100 µM
Cc1nc2cc([C@H]3CCO[C@@H](c4cnn(C5CC5)c4)C3)nc(-c3ccc(F)cc3F)c2nc1COCC1COC1 [Example I-1505, 7-((2R,4S)-2-(1-cyclopropyl-1H-pyrazol-4-yl)tetrahydro-2H-pyran-4-yl)-5-(2,4-difluorophenyl)-2-methyl-3-((oxetan-3-ylmethoxy)methyl)pyrido[3,4-b]pyrazine]	0.5 to 3 µM
Cc1cc([C@H]2CN(c3nc(-c4ccc(Cl)cc4F)c4nc(C)c(C)nc4n3)CCO2)no1 [Example I-1510, (2R)-4-[4-(4-chloro-2-fluoro-phenyl)-6,7-dimethyl-pteridin-2-yl]-2-(5-methylisoxazol-3-yl)morpholine]	0.05 to 0.5 µM
Cc1cc(N2C[C@@H](c3nc(-c4ccc(F)cc4F)c4nc(C)c(C)nc4n3)CCC2=O)ccn1 [Example I-1513]	0.05 to 0.5 µM

Next, values leading:

EC50	Structure (SMILES)
< 0.05 µM	COCn1cc([C@H]2CN(c3nc(-c4ccc(F)cc4F)c4cc(C)c(C)nc4n3)C[C@@H](C)O2)cn1 [Example I-1226, (2S,6R)-4-[4-(2,4-difluorophenyl)-6,7-dimethyl-pyrido[2,3-d]pyrimidin-2-yl]-2-[1-(methoxymethyl)pyrazol-4-yl]-6-methyl-morpholine]
< 0.05 µM	Cc1nc2nc([C@H]3CCO[C@@H](c4cnn(C5CC5)c4)C3)nc(-c3ccc(Cl)cc3F)c2nc1OCCF [Example I-1283, 4-(4-chloro-2-fluoro-phenyl)-2-[(2R,4S)-2-(1-cyclopropylpyrazol-4-yl)tetrahydropyran-4-yl]-6-(2-fluoroethoxy)-7-methyl-pteridine]
< 0.05 µM	CCCc1nc2c(-c3ccc(F)cc3F)nc(N3C[C@@H](C)O[C@@H](c4cnn(C5CC5)c4)C3)nc2nc1C [Example I-1293]
< 0.05 µM	Cc1nc2nc([C@H]3CCO[C@@H](c4cnn(C5CC5)c4)C3)nc(-c3ccc(F)cc3F)c2nc1C(F)F [Example I-1323, 2-[(2R,4S)-2-(1-cyclopropylpyrazol-4-yl)tetrahydropyran-4-yl]-6-(difluoromethyl)-4-(2,4-difluorophenyl)-7-methyl-pteridine]
< 0.05 µM	Cc1cc2c(C3CCC(C(F)F)CC3)nc(N3C[C@@H](C)O[C@@H](c4cnn(C5CC5)c4)C3)nc2nc1C (stereo partly drawn) [Example I-1328, (2S,6R)-2-(1-cyclopropylpyrazol-4-yl)-4-[4-[4-(difluoromethyl)cyclohexyl]-6,7-dimethyl-pyrido[2,3-d]pyrimidin-2-yl]-6-methyl-morpholine]
< 0.05 µM	Cc1nc2nc(N3C[C@@H](C)O[C@@H](c4cnn(C5CC5)c4)C3)nc([C@H]3C[C@H](C(F)(F)F)C3)c2nc1C [Example I-1365, (2S,6R)-2-(1-cyclopropylpyrazol-4-yl)-4-[6,7-dimethyl-4-[3-(trifluoromethyl)cyclobutyl]pteridin-2-yl]-6-methyl-morpholine]
< 0.05 µM	Cc1nc2nc(N3C[C@@H](C4CC4)O[C@@H](c4cnn(C5CC5)c4)C3)nc(-c3ccc(F)cc3F)c2nc1C [Example I-1381]
< 0.05 µM	Cc1nc2nc(N3C[C@@H](C)O[C@@H](c4cnn(C5CC5)c4F)C3)nc(-c3ccc(F)cc3F)c2nc1C [Example I-1401, (2S,6R)-2-(1-cyclopropyl-5-fluoro-pyrazol-4-yl)-4-[4-(2,4-difluorophenyl)-6,7-dimethyl-pteridin-2-yl]-6-methyl-morpholine]
< 0.05 µM	Cc1nc2nc(C3CCO[C@@H](c4cnn(C5CC5)c4)C3)nc([C@H]3C[C@@H](C(F)(F)F)C3)c2nc1C (stereo partly drawn) [Example I-1414, 2-[(2R)-2-(1-cyclopropylpyrazol-4-yl)tetrahydropyran-4-yl]-6,7-dimethyl-4-[3-(trifluoromethyl)cyclobutyl]pteridine]
< 0.05 µM	Cc1nc2nc(C3CCO[C@@H](c4cnn(C5CC5)c4)C3)nc([C@H]3C[C@H](C(F)(F)F)C3)c2nc1C (stereo partly drawn) [Example I-1432, 2-[(2R)-2-(1-cyclopropylpyrazol-4-yl)tetrahydropyran-4-yl]-6,7-dimethyl-4-[3-(trifluoromethyl)cyclobutyl]pteridine]
